Measurements taken from PubChem BioAssay (NCI).
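Cells were grown in 96-well plates and exposed to each compound for 48 hours at five concentrations; endpoints were interpolated linearly between bracketing concentrations, or set to the highest concentration if not reached. The concentration for 50% growth inhibition is given as GI50. TGI is the concentration that stops growth completely.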

How the values were obtained:
Assay in all cases: NCI tumour cell line growth inhibition, 48 h
[1] = tested on: HOP-92 NSCLC
[2] = tested on: TK-10 renal
[3] = tested on: SF-268 CNS
[4] = tested on: SK-MEL-28 melanoma
[5] = tested on: EKVX NSCLC
[6] = tested on: NCI-H460 lung
[7] = tested on: LOX IMVI melanoma
[8] = tested on: HCC-2998 colon
[9] = tested on: COLO 205 colon
[10] = tested on: SF-295 CNS
[11] = tested on: OVCAR-3 ovarian
[12] = tested on: SK-MEL-2 melanoma
[13] = tested on: UO-31 renal
[14] = tested on: UACC-62 melanoma
[15] = tested on: MDA-MB-435
[16] = tested on: OVCAR-4 ovarian
[17] = tested on: SF-539 CNS
[18] = tested on: NCI-H23 lung
[19] = tested on: DU-145 prostate
[20] = tested on: UACC-257 melanoma
[21] = tested on: SNB-19 CNS
[22] = tested on: KM12 colon
[23] = tested on: SK-MEL-5 melanoma
[24] = tested on: HT29 colon
[25] = tested on: NCI-H226 lung
[26] = tested on: OVCAR-5 ovarian
[27] = tested on: NCI/ADR-RES ovarian
[28] = tested on: RXF 393 renal
[29] = tested on: MCF7 breast
[30] = tested on: HS 578T breast
[31] = tested on: A498 renal
[32] = tested on: SK-OV-3 ovarian
[33] = tested on: CAKI-1 renal
[34] = tested on: U251 CNS
[35] = tested on: T-47D breast
[36] = tested on: MALME-3M melanoma
[37] = tested on: MOLT-4 leukemia
[38] = tested on: SN12C renal
[39] = tested on: HCT-15 colon
[40] = tested on: RPMI-8226 leukemia
[41] = tested on: A549 NSCLC
[42] = tested on: SW-620 colon
[43] = tested on: NCI-H522 lung
[44] = tested on: CCRF-CEM leukemia
[45] = tested on: 786-0 renal
[46] = tested on: OVCAR-8 ovarian
[47] = tested on: SNB-75 CNS
[48] = tested on: PC-3 prostate
[49] = tested on: HOP-62 NSCLC
[50] = tested on: IGROV1 ovarian
[51] = tested on: K-562 leukemia
[52] = tested on: M14 melanoma
[53] = tested on: MDA-MB-231 breast
[54] = tested on: HCT-116 colon
[55] = tested on: ACHN renal

Work on `O=c1c2c(nc3n1CCS3)[nH]c1ccccc12` yielded a GI50 [1] greater than 100 µM, a TGI [1] greater than 100 µM and a GI50 [2] greater than 100 µM. The TGI [2] was greater than 100 µM, the GI50 [3] was greater than 100 µM and the TGI [3] was greater than 100 µM. The GI50 [4] was 90.3 µM, the TGI [4] was greater than 100 µM and the GI50 [5] was greater than 100 µM. For the same compound, the TGI [5] was greater than 100 µM, the GI50 [6] was greater than 100 µM and the TGI [6] was greater than 100 µM. The GI50 [7] was 59.5 µM, the TGI [7] was greater than 100 µM and the GI50 [8] was greater than 100 µM. It also gave a TGI [8] greater than 100 µM, a GI50 [9] greater than 100 µM and a TGI [9] greater than 100 µM. It also gave a GI50 [10] greater than 100 µM, a TGI [10] greater than 100 µM and a GI50 [11] of 95.4 µM. For the same compound, the TGI [11] was greater than 100 µM, the GI50 [12] was greater than 100 µM and the TGI [12] was greater than 100 µM. It also gave a GI50 [13] of 94.3 µM, a TGI [13] greater than 100 µM and a GI50 [14] of 62.4 µM. The TGI [14] was greater than 100 µM, the GI50 [15] was greater than 100 µM and the TGI [15] was greater than 100 µM. It also gave a GI50 [16] greater than 100 µM, a TGI [16] greater than 100 µM and a GI50 [17] greater than 100 µM. The TGI [17] was greater than 100 µM, the GI50 [18] was greater than 100 µM and the TGI [18] was greater than 100 µM. The GI50 [19] was greater than 100 µM, the TGI [19] was greater than 100 µM and the GI50 [20] was greater than 100 µM. The TGI [20] was greater than 100 µM, the GI50 [21] was greater than 100 µM and the TGI [21] was greater than 100 µM. For the same compound, the GI50 [22] was greater than 100 µM, the TGI [22] was greater than 100 µM and the GI50 [23] was 2.75 µM. It also gave a TGI [23] greater than 100 µM, a GI50 [24] greater than 100 µM and a TGI [24] greater than 100 µM. For the same compound, the GI50 [25] was 70.3 µM, the TGI [25] was greater than 100 µM and the GI50 [26] was greater than 100 µM. It also gave a TGI [26] greater than 100 µM, a GI50 [27] greater than 100 µM and a TGI [27] greater than 100 µM. The GI50 [28] was 58.6 µM, the TGI [28] was greater than 100 µM and the GI50 [29] was greater than 100 µM. For the same compound, the TGI [29] was greater than 100 µM, the GI50 [30] was 73.6 µM and the TGI [30] was greater than 100 µM. It also gave a GI50 [31] of 89.5 µM, a TGI [31] greater than 100 µM and a GI50 [32] greater than 100 µM. The TGI [32] was greater than 100 µM, the GI50 [33] was 76.8 µM and the TGI [33] was greater than 100 µM. It also gave a GI50 [34] greater than 100 µM, a TGI [34] greater than 100 µM and a GI50 [35] greater than 100 µM. The TGI [35] was greater than 100 µM, the GI50 [36] was greater than 100 µM and the TGI [36] was greater than 100 µM. It also gave a GI50 [37] greater than 100 µM, a TGI [37] greater than 100 µM and a GI50 [38] greater than 100 µM. For the same compound, the TGI [38] was greater than 100 µM, the GI50 [39] was greater than 100 µM and the TGI [39] was greater than 100 µM. It also gave a GI50 [40] greater than 100 µM, a TGI [40] greater than 100 µM and a GI50 [41] of 90.1 µM. The TGI [41] was greater than 100 µM, the GI50 [42] was greater than 100 µM and the TGI [42] was greater than 100 µM. The GI50 [43] was greater than 100 µM, the TGI [43] was greater than 100 µM and the GI50 [44] was greater than 100 µM. The TGI [44] was greater than 100 µM, the GI50 [45] was greater than 100 µM and the TGI [45] was greater than 100 µM. It also gave a GI50 [46] greater than 100 µM, a TGI [46] greater than 100 µM and a GI50 [47] of 30.5 µM. It also gave a TGI [47] greater than 100 µM, a GI50 [48] greater than 100 µM and a TGI [48] greater than 100 µM. It also gave a GI50 [49] greater than 100 µM, a TGI [49] greater than 100 µM and a GI50 [50] of 17.8 µM. It also gave a TGI [50] greater than 100 µM, a GI50 [51] greater than 100 µM and a TGI [51] greater than 100 µM. The GI50 [52] was greater than 100 µM, the TGI [52] was greater than 100 µM and the GI50 [53] was 33.4 µM. The TGI [53] was greater than 100 µM, the GI50 [54] was greater than 100 µM and the TGI [54] was greater than 100 µM. For the same compound, the GI50 [55] was greater than 100 µM and the TGI [55] was greater than 100 µM.
